The values that follow come from patent US5196327A, “Process for producing antifungal fermentation products and compositions thereof” (Merck & Co., Inc., priority 1991, dated 1993).

Holding throughout (experiment): Agar dilution assay, MIC
Experiment [1] concerns Aspergillus fumigatus MF4839. It is filed as cell-based. As to conditions: strain MF4839, yeast nitrogen base dextrose agar. As to the method: (§1) In separate operations, in vitro antifungal activity determinations were carried out with Compound IB and with Compound IC against a panel of filamentous and yeast-like fungi employing yeast nitrogen base dextrose agar medium. In carrying out the assay, the compound to be tested was solubilized in 10 percent dimethyl sulfoxide (DMSO) supplemented with one drop of Tween 20. Two-fold dilutions were made with sterile distilled water/10% DMSO to obtain final concentrations in the agar dilution assay plates ranging from 64 to 0.06 μg/ml in the operation with Compound IB and from 128 to 0.06 μg/ml in the operation with Compound IC.
(§2) Nystatin (commercially available antifungal agent) was used as a positive antifungal control.

The test system of the next experiment is Ca. guilliermondi MY1019. It is filed as cell-based. Conditions: strain MY1019, yeast nitrogen base dextrose agar. As for the experimental part:
as §1, §2

The subject of another experiment is Ca. krusei MY1020. Type of experiment: cell-based. Conditions: strain MY1020, yeast nitrogen base dextrose agar. As to the method:
as §1, §2

The test system of another experiment is Ca. parapsilosis MY1009. Type of experiment: cell-based. As to conditions: strain MY1009, yeast nitrogen base dextrose agar. As for the experimental part: as §1, §2
The test system of a further experiment is Ca. parapsilosis MY1010. Type of experiment: cell-based. As to conditions: strain MY1010, yeast nitrogen base dextrose agar. As for the experimental part:
as §1, §2

Another experiment has as its system Ca. stellatoidea MY1017. Type of experiment: cell-based. As to conditions: strain MY1017, yeast nitrogen base dextrose agar. As for the experimental part: as §1, §2
The next experiment deals with Candida albicans MY1058. Type of experiment: cell-based. Conditions: strain MY1058, yeast nitrogen base dextrose agar. As for the experimental part: as §1, §2
Experiment [2] relates to Cryptococcus neoformans MY1051. Type of experiment: cell-based. As to conditions: strain MY1051, yeast nitrogen base dextrose agar. As to the method: as §1, §2
The test system of experiment [3] is Penicillium italicum MF2819. It is filed as cell-based. Conditions: strain MF2819, yeast nitrogen base dextrose agar. As for the experimental part:
as §1, §2

Experiment [4] has as its system Torulopsis glabrata MY1059. Type of experiment: cell-based. Conditions: strain MY1059, yeast nitrogen base dextrose agar. As for the experimental part: as §1, §2
The test system of another experiment is Cr. neoformans MY1146. It is filed as cell-based, Cryptococcus neoformans. Conditions: strain MY1146, yeast nitrogen base dextrose agar. As for the experimental part: as §1, §2
In another experiment the test system is Ca. albicans MY0992. Type of experiment: cell-based, Candida albicans. Conditions: strain MY0992, yeast nitrogen base dextrose agar. As for the experimental part: as §1, §2
The subject of the next experiment is Ca. albicans MY1013. Type of experiment: cell-based, Candida albicans. As to conditions: strain MY1013, yeast nitrogen base dextrose agar. As for the experimental part: as §1, §2
A further experiment has as its system Ca. albicans MY1029. It is filed as cell-based, Candida albicans. As to conditions: strain MY1029, yeast nitrogen base dextrose agar. As to the method:
as §1, §2

A further experiment relates to Ca. albicans MY1055. Type of experiment: cell-based, Candida albicans. As to conditions: strain MY1055, yeast nitrogen base dextrose agar. As for the experimental part: as §1, §2
A further experiment has as its system Ca. tropicalis MY1011. It is filed as cell-based, Candida tropicalis. As to conditions: strain MY1011, yeast nitrogen base dextrose agar. As for the experimental part:
as §1, §2

A further experiment relates to Ca. tropicalis MY1012. It is filed as cell-based, Candida tropicalis. Conditions: strain MY1012, yeast nitrogen base dextrose agar. As to the method: as §1, §2
Experiment [5] concerns Ca. pseudotropicalis MY1040. Type of experiment: cell-based, Candida pseudotropicalis. As to conditions: strain MY1040, yeast nitrogen base dextrose agar. As for the experimental part: as §1, §2
For the next experiment, the system named is Ca. rugosa MY1022. It is filed as cell-based, Candida rugosa. Conditions: strain MY1022, yeast nitrogen base dextrose agar. As to the method: as §1, §2
Another experiment deals with Sac. cerevisiae MY1027. Type of experiment: cell-based, Saccharomyces cerevisiae. Conditions: strain MY1027, yeast nitrogen base dextrose agar. As for the experimental part: as §1, §2
The test system of the next experiment is A. flavus MF0383. Type of experiment: cell-based, Aspergillus flavus. As to conditions: strain MF0383, yeast nitrogen base dextrose agar. As for the experimental part: as §1, §2
[6] abbreviates: read-out: Minimum Inhibitory Concentration.

Molecules are shown by their SMILES. In brackets after ≈: the same amount, converted by molar mass. Where only a bound is given, the exact number is not on record here.

In the case of `CCCCCCC(O)CCCCCCC=CC(OC(C)=O)C(O)C(O)C(N)C(=O)O` (stereo not drawn) [Compound IC, 5-acetyloxy-2-amino-3,4,14-trihydroxy-6-eicosenoic acid], the MIC in experiment [1] (setting [6]) is 64 µg/mL (≈ 148 µM); with Ca. guilliermondi MY1019 (setting [6]), above 128 µg/mL; in the experiment with Ca. krusei MY1020 (setting [6]), above 128 µg/mL; with Ca. parapsilosis MY1009 (setting [6]), above 128 µg/mL; with Ca. parapsilosis MY1010 (setting [6]), 8 µg/mL (≈ 18.5 µM); in the experiment with Ca. stellatoidea MY1017 (setting [6]), 32 µg/mL (≈ 74.1 µM). Besides, the MIC with Candida albicans MY1058 (setting [6]) is 32 µg/mL (≈ 74.1 µM); in [2] (setting [6]), 2 µg/mL (≈ 4.63 µM); in experiment [3] (setting [6]), 32 µg/mL (≈ 74.1 µM); in experiment [4] (setting [6]), 16 µg/mL (≈ 37.1 µM); in the experiment on Cr. neoformans MY1146 (setting [6]) it was 2 µg/mL (≈ 4.63 µM); with Ca. albicans MY0992 (setting [6]), 128 µg/mL (≈ 297 µM). In addition, the MIC in the experiment with Ca. albicans MY1013 (setting [6]) is 128 µg/mL (≈ 297 µM); in the experiment with Ca. albicans MY1029 (setting [6]), above 128 µg/mL; with Ca. albicans MY1055 (setting [6]), 128 µg/mL (≈ 297 µM); in the experiment with Ca. tropicalis MY1011 (setting [6]), 32 µg/mL (≈ 74.1 µM); in the experiment with Ca. tropicalis MY1012 (setting [6]), 2 µg/mL (≈ 4.63 µM); in experiment [5] (setting [6]) it was 2 µg/mL (≈ 4.63 µM). Moreover, the MIC in the experiment with Ca. rugosa MY1022 (setting [6]) was above 128 µg/mL; with Sac. cerevisiae MY1027 (Saccharomyces cerevisiae, read-out: Minimum Inhibitory Concentration) it was 32 µg/mL (≈ 74.1 µM); in the experiment on A. flavus MF0383 (setting [6]), 64 µg/mL (≈ 148 µM).

Consider `C[C@@H]1[C@H](O)[C@@H](C)/C=C/C=C/CC/C=C/C=C/C=C/C=C/C(O[C@H]2O[C@H](C)[C@@H](O)[C@H](N)[C@@H]2O)CC2O[C@](O)(CC(O)C(O)CCC(O)CC(O)CC(O)CC(=O)O[C@H]1C)CC(O)C2C(=O)O` (stereo partly drawn) [Nystatin, reference compound], for which the “Minimum Inhibitory Concentration” value in [1] was 2 µg/mL; in the experiment on Ca. guilliermondi MY1019, 2 µg/mL; in the experiment with Ca. krusei MY1020 it was 2 µg/mL; with Ca. parapsilosis MY1009, 4 µg/mL; with Ca. parapsilosis MY1010, 2 µg/mL; in the experiment with Ca. stellatoidea MY1017, 2 µg/mL. Moreover, the “Minimum Inhibitory Concentration” value in the experiment with Candida albicans MY1058 is 2 µg/mL; in experiment [2] it was 2 µg/mL; in experiment [3], 2 µg/mL; in experiment [4], 1 µg/mL; with Cr. neoformans MY1146, 2 µg/mL; in the experiment on Ca. albicans MY0992, 2 µg/mL. The “Minimum Inhibitory Concentration” value with Ca. albicans MY1013 was 2 µg/mL; with Ca. albicans MY1029, 2 µg/mL; with Ca. albicans MY1055, 2 µg/mL; with Ca. tropicalis MY1011 it was 2 µg/mL; in the experiment with Ca. tropicalis MY1012, above 128 µg/mL; in [5] it was 1 µg/mL. Besides, the results for the “Minimum Inhibitory Concentration” value in the experiment on Ca. rugosa MY1022, in the experiment with Sac. cerevisiae MY1027 and in the experiment with A. flavus MF0383 were 4 µg/mL, 1 µg/mL and 2 µg/mL, respectively.
